The record followed here is patent US9546201B2, “MUC-1 cytoplasmic domain peptides as inhibitors of cancer” (DANA-FARBER CANCER INSTITUTE, INC., priority 2008, dated 2017).

One test relates to ZR-75-1/MUC1siRNA cells. As to the kind of experiment: Viable cell number by trypan blue exclusion, ZR-75-1/MUC1siRNA. The conditions noted are these: 5 μM; MUC1 silenced. It is filed as cell-based, human. As for the experimental part: (§1) FIGS. 4A-E. Selectivity of MUC1/CQC for MUC1 expressing breast cancer cells. (FIG. 4A) ZR-75-1 cells were stably infected with an empty lentivirus (vector) or one expressing a MUC1 siRNA. Lysates for the infected cells were immunoblotted with the indicated antibodies. (FIG. 4B) ZR-75-1/vector cells were left untreated (diamonds), and ZR-75-1/vector (squares) and ZR-75-1/MUC1siRNA (triangles) cells were treated with 5 μM MUC1/CQC peptide for the indicated times. Viable cell number was determined by trypan blue exclusion. (FIG. 4C) 293 cells were left untreated (diamonds), and treated with 5 μM MUC1/CQC (squares) or MUC1/AQA (triangles) for the indicated times. Viable cell number was determined by trypan blue exclusion. (FIG. 4D) MCF-10A cells were left untreated (left panel), and treated with 5 μM MUC1/CQC (middle panel) or MUC1/AQA (right panel). At 3 d, cells were analyzed for cell cycle distribution. […] Viable cell number was determined by trypan blue exclusion.
(§2) Human breast cancer ZR-75-1, ZR-75-1/vector, ZR-75-1/MUC1siRNA (Ren et al., 2004) cell lines were grown in RPMI1640 medium supplemented with 10% heat-inactivated fetal bovine serum (HI-FBS), 100 U/ml penicillin, and 100 μg/ml streptomycin (Invitrogen) in a humidified incubator at 37° C. and 5% CO2. […] Viability was determined by trypan blue exclusion. […]

The subject of the next test is ZR-75-1/vector cells. As to the kind of experiment: Viable cell number by trypan blue exclusion, ZR-75-1/vector. It is filed as cell-based, human. The conditions noted are these: 5 μM. Here is the method: as §1, §2
The subject of test [1] is MCF-10A non-transformed mammary epithelial cell line. As to the kind of experiment: Cell cycle distribution and viable cell number, MCF-10A. It is filed as cell-based, human. The conditions noted are these: 5 μM. As for the experimental part:
as §1, §2

The target of the next test is T1, MUC1-C in MCF-7 cells (Homo sapiens, UniProt P15941).
T1 construct: translated as a single polypeptide and cleaved into N- and C-terminal subunits in the endoplasmic reticulum; endogenous in cells; host or cells: ZR-75-1 and MCF-7 human breast cancer cells
T1 sequence (P15941 1098-1255 limits assumed): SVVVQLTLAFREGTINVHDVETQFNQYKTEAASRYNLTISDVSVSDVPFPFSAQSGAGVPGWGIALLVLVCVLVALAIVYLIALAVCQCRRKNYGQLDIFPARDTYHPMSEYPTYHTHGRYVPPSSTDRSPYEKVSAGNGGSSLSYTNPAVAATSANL
As to the kind of experiment: Immunoblot of nuclear lysates, MCF-7. It is filed as cell-based. The conditions noted are these: MCF-7 nuclear lysates, 5 μM peptide for 3 d. As for the experimental part:
FIGS. 2A-C. MUC1/CQC peptide blocks nuclear localization of MUC1-C. (FIG. 2A) ZR-75-1 cells were incubated with 5 μM FITC-labeled MUC1/CQC peptide for the indicated times and then analyzed by flow cytometry. The mean fluorescence index (MFI) is included in each of the panels. (FIGS. 2B-C) ZR-75-1 (FIG. 2B) and MCF-7 (FIG. 2C) cells were incubated in the presence of 5 μM MUC1/CQC or MUC1/AQA peptide for 3 d. Whole cell lysates (WCL) (left panels) and nuclear lysates (right panels) were immunoblotted with the indicated antibodies.
Whole cell and nuclear lysates were prepared as described (Leng et al., 2007). Soluble proteins were subjected to immunoprecipitation with anti-Flag (Sigma, St. Louis, Mo.). Immunoprecitates and soluble proteins were analyzed by immunoblotting with anti-His (Cell Signaling Technology, Danvers, Mass.), anti-GFP (Millipore, Danvers, Mass.), anti-Flag, anti-MUC1-C (Abl; NeoMarkers, Fremont, Calif.), anti-lamin B (EMD, La Jolla, Calif.) or anti-β-actin (Sigma). Reactivity was detected with horseradish peroxidase-conjugated second antibodies and chemiluminescence.
Human ZR-75-1 and MCF-7 breast cancer cells overexpress endogenous MUC1, and thus represent potential models for evaluating effects of the MUC1/CQC peptide (Ramasamy et al., 2007). To assess uptake, the ZR-75-1 cells were incubated with 5 μM FITC-MUC1/CQC peptide (FIG. 2A). […]
(Immunoblotting shows a protein as a band on a membrane.)

The test system of another test is MCF-7 cells. As to the kind of experiment: Cell cycle distribution and necrosis by flow cytometry, MCF-7. It is filed as cell-based, human. The conditions noted are these: MCF-7, 5 μM, 3 and 4 d. Here is the method:
FIGS. 3A-D. MUC1/CQC peptide induces S phase arrest and necrosis. ZR-75-1 (FIGS. 3A-B) and MCF-7 (FIGS. 3C-D) cells were treated with 5 μM MUC1/CQC or MUC1/AQA for 3 and 4 d. Cells were fixed and analyzed for cell cycle distribution by flow cytometry (FIGS. 3A and 3C). The percentage of cells in G1, S and G2/M phases is included in the panels. Cells were also stained with propidium iodide and analyzed by flow cytometry for necrosis (FIGS. 3B and 3D). The percentage of necrotic cells is included in the panels.
Cells were harvested, washed with PBS, fixed with 80% ethanol, and incubated in PBS containing 40 μg/ml RNAse and 40 μg/ml propidium iodide for 30 min at 37° C. Cell cycle distribution was determined by flow cytometry. Sub-G1 DNA content was assessed by staining ethanol-fixed and citrate buffer-permeabilized cells with propidium iodide and monitoring by flow cytometry as described (Yin et al., 2007). For assessment of necrosis, cells were incubated with 1 μg/ml propidium iodide/PBS for 5 min at room temperature and then monitored by flow cytometry as described (Yin et al., 2007).
To determine whether the MUC1/CQC peptide affects growth, ZR-75-1 cells were treated with 5 μM MUC1/CQC for 72 h and monitored for cell cycle distribution. […] These findings indicate that the MUC1/CQC peptide inhibits growth and induces necrosis of human breast cancer cells.

Entries after “also recorded” stand apart in the source; their conditions may differ. Where a SMILES comes first, the peptide text is derived from it. [ ]: non-standard residue; d: D form.

Take `CC[C@H](C)[C@H](NC(=O)[C@H](CC(=O)O)NC(=O)[C@H](CC(C)C)NC(=O)[C@H](CCC(N)=O)NC(=O)CNC(=O)[C@H](Cc1ccc(O)cc1)NC(=O)[C@H](CC(N)=O)NC(=O)[C@H](CCCCN)NC(=O)[C@H](CCCNC(=N)N)NC(=O)[C@H](CCCNC(=N)N)NC(=O)[C@H](CS)NC(=O)[C@H](CCC(N)=O)NC(=O)[C@H](CS)NC(=O)[C@@H](CCCNC(=N)N)NC(=O)[C@@H](CCCNC(=N)N)NC(=O)[C@@H](CCCNC(=N)N)NC(=O)[C@@H](CCCNC(=N)N)NC(=O)[C@@H](CCCNC(=N)N)NC(=O)[C@@H](CCCNC(=N)N)NC(=O)[C@@H](CCCNC(=N)N)NC(=O)[C@@H](CCCNC(=N)N)NC(=O)[C@H](N)CCCNC(=N)N)C(=O)N[C@@H](Cc1ccccc1)C(=O)N1CCC[C@H]1C(=O)O` [MUC1/CQC] (H-[dR][dR][dR][dR][dR][dR][dR][dR][dR]CQCRRKNYGQLDIFP-OH; N-terminus and C-terminus assumed): the “effect on growth (viable cell number)” value in the test with ZR-75-1/MUC1siRNA cells was “substantially less effect; also recorded: abrogated the MUC1/CQC cytotoxic effects”; with ZR-75-1/vector cells, “growth arrest and death”. Also, the effect on growth entry in test [1] was “no effect; also recorded: little effect”. In addition, in test [1] (3 d), the “effect on cell cycle distribution” value is reported as “no effect”. Moreover, the “nuclear MUC1-C levels” value at MUC1-C in MCF-7 cells is recorded as “down-regulation of nuclear MUC1-C levels”. In addition, the cell cycle distribution result in the test with MCF-7 cells is “arrest of growth in S phase”. Besides, the necrosis result in the test with MCF-7 cells is listed as “induction of necrosis”.
